In US20140128357A1, “METHODS OF PRODUCING AND USING BRASSINOSTEROIDS TO PROMOTE GROWTH, REPAIR AND MAINTENANCE OF SKELETAL MUSCLE AND SKIN” (Rutgers University, priority 2010, published 2014):
Marks after values point to notes of the source that are not given here.

Tested on: elastin mRNA in human neonatal dermal fibroblasts (HNDF)
Assay: Elastin gene expression in human dermal fibroblasts, qPCR
Format: cell-based
Conditions: 16 h
Protocol: Human neonatal dermal fibroblasts (HNDF) were maintained in DMEM+10% FBS and were kept in a humidified 37° C. incubator with 5% CO2. Cells were plated at a density of 1×10^4 cells per well in a 24-well plate and incubated for 24 h, or until 100% confluency was reached. Subsequently, the media was removed and cells were washed with 500 μL PBS twice to remove detached cells or cell debris. HNDF were then treated for 16 h as follows: DMEM only, retinoic Acid 5 μM, retinoic acid 10 μM, Homocastasterone 5 μM and Homocastasterone 10 μM.
RNA was extracted from HNDF using Trizol reagent (Invitrogen) following manufacturer instructions. RNA was quantified spectrophotometrically by absorbance measurements at 260 nm and 280 nm using the NanoDrop system (NanoDrop Technologies, Wilmington, Del.). Quality of RNA was assessed by separation in gel-electrophoresis. To remove any traces of DNA contamination, RNA was then treated with Dnase I (Invitrogen) following the manufacturer guidelines. Complementary DNAs (cDNAs) were synthesized using 3.0 μg of RNA for each sample using Applied Biosystems High Capacity cDNA Reverse Transcription Kit following the manufacturer's protocol.
Quantitative RT-PCR (qPCR) amplifications were carried out in triplicate on an ABI 7300 Real-Time Detection System in a total volume of 25 μl containing 12.5 μl Brilliant SYBR® Green PCR master mix (Applied Biosystems), 5 μl of the 1:25 diluted cDNA, 0.5 μl of 6 μM gene-specific primers (IDT, Coralville, Iowa) and […] PCR-grade water. Primers were synthesized by Integrated DNA Technologies, Inc. (Coralville, Iowa, USA) as follows: β-actin, forward primer 5′-ACGTTGCTATCCAGGCTGTGCTAT-3′ (SEQ ID NO: 1), reverse primer 5′-CTCGGTGAGGATCTTCATGAGGTAGT-3′ (SEQ ID NO: 2); elastin, forward primer 5′-AAGCAGCAGCAAAGTTCGGT-3′ (SEQ ID NO: 3), and reverse primer 5′-ACTAAGCCTGCAGCAGCTCCATA-3′ (SEQ ID NO: 4). qPCR amplifications were performed on the 7300 Real Time PCR System (A&B Applied Biosystems) using 1 cycle at 50° C. for 2 min, 1 cycle at 95° C. for 10 min, followed by 40 cycles of 15 s at 95° C. and 1 min at 60° C. The dissociation curve was completed with one cycle of 15 s at 95° C., 1 min at 60° C., and 15 s of 95° C. No RT (NRT) and no template control (NTC) were included in each experiment as quality control steps. Target mRNA expression was analyzed using the ΔΔCt method and normalized with respect to the expression of the β-actin housekeeping gene. Cells treated with DMEM only (negative control) served as the calibrator sample in this study, and a value of 1.0 was assigned to the target gene expression of the calibrator sample. All samples were run in triplicate. A p value of 0.001 was considered to be significant.

CC[C@@H](C(C)C)[C@H](O)[C@@H](O)[C@@H](C)[C@H]1CC[C@H]2[C@@H]3CC(=O)[C@H]4C[C@H](O)[C@H](O)C[C@]4(C)[C@H]3CC[C@]12C [Compound 2, (22S,23S,24S)-2α,3α, 22,23-tetrahydroxy-24-ethyl-5α-cholestan-6-one]
Increase in elastin mRNA levels (-fold over control) (5 μM): 1.7 fold
Increase in elastin mRNA levels (-fold over control) (10 μM, listed as Homocastasterone): 3.2** fold
Increase in elastin mRNA levels (-fold over control) (10 μM, listed as homocastasterone): up to 3.23±0.4 fold
